In publication PMC5771956 (Nature chemical biology, 2017):
Entries after “also recorded” stand apart in the source; their conditions may differ.

Columns and labels:
D2 I184A^EL2 mutant [1] = target: T1, D2 I184A^EL2 mutant (Homo sapiens, UniProt P14416, I184A); assay: cell-based; type: cell-based; conditions: for effect of I184A mutation on β-arrestin2 recruitment: Tango
[2] = target: T2, D2 dopamine receptor (D2R) (Homo sapiens, UniProt P14416); assay: Bias calculation, Gi/o activity versus β-arrestin2 recruitment; type: cell-based; conditions: for bias factor: arrestin recruitment over Gi/o signaling, relative to quinpirole
T2 sequence (P14416 whole entry): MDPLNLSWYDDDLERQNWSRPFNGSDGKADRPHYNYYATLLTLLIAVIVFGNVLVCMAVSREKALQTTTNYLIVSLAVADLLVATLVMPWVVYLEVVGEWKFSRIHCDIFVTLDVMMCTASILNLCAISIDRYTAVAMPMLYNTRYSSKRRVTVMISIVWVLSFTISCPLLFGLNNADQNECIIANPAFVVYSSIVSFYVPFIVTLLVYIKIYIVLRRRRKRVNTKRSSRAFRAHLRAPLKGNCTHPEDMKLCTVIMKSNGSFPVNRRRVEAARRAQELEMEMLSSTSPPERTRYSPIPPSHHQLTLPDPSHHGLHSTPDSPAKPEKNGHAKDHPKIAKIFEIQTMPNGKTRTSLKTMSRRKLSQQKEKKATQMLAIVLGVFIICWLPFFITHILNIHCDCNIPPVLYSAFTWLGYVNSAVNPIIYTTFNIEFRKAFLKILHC

human D2Long = human D2Long (Homo sapiens, UniProt P14416); assay: cell-based; conditions: for Emax: read-out: D2 β-arrestin2 Emax, D2 wild-type, Tango, normalized to quinpirole
Chain of human D2Long (P14416 whole entry): as above

[3] = target: T2, D2 dopamine receptor (D2R); assay: cell-based; conditions: for Emax: read-out: D2 Gi/o Emax, D2 wild-type, normalized to quinpirole
D2 I184A^EL2 mutant [4] = target: T1, D2 I184A^EL2 mutant; assay: Competitive binding kinetics with [3H] NMSP at I184A mutant
[5] = test system: β2AR EL2.52 F194 mutants (alanine, leucine, isoleucine); assay: β-arrestin2 recruitment by Tango at β2AR EL2 mutants; type: cell-based

T1 sequence (P14416 whole entry I184A): as the sequence (P14416 whole entry) above, with I184A counted along it

| SMILES | effect of I184A mutation on β-arrestin2 recruitment (D2 I184A^EL2 mutant [1]) | bias factor [2] | Emax (human D2Long) | Emax [3] | also measured |
| --- | --- | --- | --- | --- | --- |
| O=C1CCc2ccc(OCCCCN3CCCN(c4cccc(Cl)c4Cl)CC3)nc2N1 [UNC 9975, reference compound] | no change in arrestin recruitment efficacy |  |  |  |  |
| Cc1cc2c(N3CCN(CCCCOc4ccc5c(c4)NC(=O)CC5)CC3)cccc2[nH]1 [compound 6, 7-(4-(4-(2-methyl-1H-indol-4-yl)piperazin-1-yl)butoxy)-3,4-dihydroquinolin-2(1H)-one] | selectively abolishing; also recorded: partial but not complete loss of arrestin recruitment efficacy | 1.3 | 78% | 86% | SFSR summary (signaling profile) ([2]; Gi/o versus arrestin activity): no preference for arrestin recruitment over G protein activation; EC50 (human D2Long): 0.62 nM; EC50 [3]: 0.49 nM; EC50 (D2 I184A^EL2 mutant [1]): 2.7 nM; Emax (D2 I184A^EL2 mutant [1]; read-out: β-arrestin2 Emax at I184A): 40% |
| Cc1cc2c(N3CCN(CCCCOc4ccc5c(c4)NC(=O)CC5)CC3)cccc2n1C [compound 7, 7-(4-(4-(1,2-Dimethyl-1H-indol-4-yl)piperazin-1-yl)butoxy)-3,4-dihydroquinolin-2(1H)-one] | almost completely abolishes | 20 | 78% | 60% | increase in off-rate at I184A compared to D2R wild-type (D2 I184A^EL2 mutant [4]): 6.2 fold; increase in on-rate at I184A compared to D2R wild-type (D2 I184A^EL2 mutant [4]): 6.7 fold |
| CC(C)NC[C@H](O)c1ccc(O)c(O)c1 [isoproterenol, (−)-isoproterenol bitartrate] |  |  |  |  | β-arrestin2 recruitment at β2AR EL2 mutants [5]: substantially reduced |
| Clc1cccc(C2CCN(CCCOc3ccc4scnc4c3)CC2)c1Cl [UNC 9994, reference compound] | no change in arrestin recruitment efficacy |  |  |  |  |
